Measured values reported in US20170096426A1 (published 2017).

melting point: 116 to 117 °C
SMILES: CCCCCn1c2ccccc2c2cc(C(=O)c3ccccc3)ccc21
